The supplement of paper PMC10307832

Legend:
Assay in all cases: relative viability (nuclei count vs DMSO), 5 days (fraction); higher = more cells survive
[1] = compound: CC[C@H](Nc1ncnc2[nH]cnc12)c1nc2cccc(F)c2c(=O)n1-c1ccccc1 [Idelalisib] + COc1cccc2cc(-c3nc([C@H]4CC[C@H](C(=O)O)CC4)n4ncnc(N)c34)[nH]c12 [OSI-027] (partner 0.5 µM)
Outline: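 Lung cancer cell lines in 1536-well plates were dosed by pin tool the day after seeding, either with one drug alone or with a fixed anchor-drug dose plus five library-drug doses (not always all listed) in √10 steps. After 5 days, cells were fixed and their nuclei stained in one step (final 0.05% Triton X-100, 1% formaldehyde, 1 ug/ml Hoechst), then counted on 4× images. Relative viability is the nuclei count in treated wells divided by that in vehicle wells. Values are medians of duplicate plates.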

[2] = compound: Nc1nc2[nH]cc(CCc3ccc(C(=O)N[C@@H](CCC(=O)O)C(=O)O)cc3)c2c(=O)[nH]1 [Pemetrexed]
Outline: (§1)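 Lung cancer cell lines received five library-drug doses (not always all listed) spaced by √10, pinned on vehicle-anchored 1536-well plates after an overnight stay at 37 °C. Five days later, with no medium change, nuclei were Hoechst-stained, imaged at 4× and counted with MetaXpress. Viability is treated-well nuclei relative to vehicle-well nuclei, as a median across plates. Passing plates had control CV below 25% and at least one doubling.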

[3] = compound: CC[C@H](Nc1ncnc2[nH]cnc12)c1nc2cccc(F)c2c(=O)n1-c1ccccc1 [Idelalisib]
Outline: as §1

| Cell Line | relative viability ([1]; first compound 0.04 µM) | relative viability ([1]; first compound 0.1265 µM) | relative viability ([1]; first compound 0.4 µM) | relative viability ([1]; first compound 1.265 µM) | relative viability ([1]; first compound 4 µM) | relative viability ([2]; 0.002 µM) | relative viability ([2]; 0.006325 µM) | relative viability ([2]; 0.02 µM) | relative viability ([2]; 0.06325 µM) | relative viability ([2]; 0.2 µM) | relative viability ([2]; 0.2 µM, anchor plate) | relative viability ([3]; 0.04 µM) | relative viability ([3]; 0.1265 µM) | relative viability ([3]; 0.4 µM) | relative viability ([3]; 1.265 µM) | relative viability ([3]; 4 µM) |
| --- | --- | --- | --- | --- | --- | --- | --- | --- | --- | --- | --- | --- | --- | --- | --- | --- |
| NCI-H596 | 0.859 | 0.746 | 0.666 | 0.65 | 0.551 | 0.996 | 0.909 | 0.942 | 0.732 | 0.436 | 0.499 | 1.05 | 1.01 | 0.976 | 1.04 | 0.809 |
| NCI-H460 | 0.911 | 0.794 | 0.469 | 0.571 | 0.45 | 0.878 | 0.969 | 1.03 | 0.745 | 0.116 | 0.065 | 0.996 | 1.01 | 1.01 | 1.02 | 1 |
| NCI-H647 | 0.758 | 0.64 | – | 0.527 | 0.423 | 0.734 | 1.01 | 1.04 | 0.883 | 0.289 | 0.182 | 1.01 | 1.08 | 0.719 | 0.847 | 0.702 |
| NCI-H838 | 0.416 | 0.346 | 0.271 | 0.453 | 0.317 | 0.99 | 0.917 | 1.08 | 0.869 | 0.359 | 0.257 | 0.958 | 0.993 | 0.851 | 0.921 | 0.753 |
| PC-14 | 0.946 | 1.05 | 0.721 | 0.338 | 0.754 | 0.975 | 1.01 | 1.08 | 0.602 | 0.142 | 0.136 | 1.07 | 1.05 | 0.951 | 0.922 | 0.959 |
| NCI-H358 | 0.773 | 0.875 | 0.554 | 0.695 | 0.72 | 0.958 | 0.925 | 0.864 | 0.293 | 0.24 | 0.176 | 1.04 | 0.864 | 0.794 | 0.901 | 0.861 |
| NCI-H1915 | 0.699 | 0.633 | 0.627 | 0.739 | 0.53 | 0.95 | 0.976 | 1.12 | 0.982 | 0.98 | 0.507 | 1.08 | 0.999 | 0.948 | 1.11 | 0.984 |
| 201T | 0.812 | 0.736 | 0.548 | 0.67 | 0.679 | 1.01 | 0.998 | 1.04 | 0.996 | 0.91 | 0.323 | 0.985 | 1.01 | 0.885 | 1.06 | 0.867 |
| NCI-H1437 | 0.861 | 0.864 | 0.795 | 1.07 | 0.967 | 0.741 | 0.974 | 0.998 | 0.704 | 0.493 | 0.319 | 1.01 | 0.995 | 0.965 | 1.12 | 1.05 |
| A-427 | 0.443 | 0.488 | 0.332 | 0.503 | 0.469 | 0.94 | 1.05 | 1.07 | 0.992 | 0.939 | 0.98 | 1.14 | 1.01 | 0.883 | 1.01 | 0.904 |
| HCC-366 | 1.09 | 0.889 | 0.598 | 0.788 | 0.677 | 0.964 | 0.985 | 1.07 | 0.991 | – | – | 1.06 | 0.993 | 0.986 | 0.987 | 0.966 |
| BEN | 0.263 | 0.286 | 0.257 | 0.294 | 0.291 | 0.964 | 1 | 1.06 | 0.947 | 0.769 | 0.829 | 1.05 | 0.883 | 0.975 | 0.968 | 0.875 |
| NCI-H2347 | 0.379 | 0.332 | 0.367 | 0.348 | 0.257 | 0.931 | 0.965 | 1.14 | 0.9 | 0.655 | 0.42 | 1.1 | 1.03 | 0.904 | 1.14 | 0.866 |
| LCLC-103H | 0.545 | 0.497 | 0.368 | 0.459 | 0.424 | 0.89 | 1.01 | 1.01 | 1.02 | 0.935 | 0.477 | 1.12 | 0.979 | 0.822 | 1.09 | 0.91 |
| NCI-H650 | 0.491 | 0.574 | 0.446 | 0.527 | 0.506 | 0.851 | 0.905 | 0.987 | 0.857 | 1.02 | 0.925 | 0.938 | 1.01 | 0.885 | 1.05 | 0.889 |
| NCI-H1975 | 0.819 | 0.764 | 0.61 | 0.917 | 0.429 | 0.698 | 0.938 | 1.01 | 0.87 | 0.54 | 0.291 | 1.02 | 1.04 | 0.864 | 0.921 | 0.737 |
| NCI-H2126 | 0.67 | 0.678 | 0.462 | 0.732 | 0.704 | 0.974 | 0.992 | 1.04 | 1 | 0.91 | 0.684 | 1.02 | 1.08 | 0.837 | 1.03 | 0.931 |
| NCI-H2087 | 0.593 | 0.513 | 0.324 | 0.633 | 0.319 | 0.926 | 0.875 | 1.15 | 1.05 | 0.639 | 0.684 | 1.09 | 1.13 | 0.868 | 1.12 | 0.749 |
